Test results: the supplement of paper PMC10307832

Columns and labels:
Experiment in all cases: relative viability (nuclei count vs DMSO), 5 days (fraction); higher = more cells survive
[1] = compound: CC1=C(C(=O)N2C=CSC2=N1)CCN3CCC(=C(C4=CC=CC=C4)C5=CC=C(C=C5)F)CC3 + CC(=O)Nc1cccc(-n2c(=O)n(C3CC3)c(=O)c3c(Nc4ccc(I)cc4F)n(C)c(=O)c(C)c32)c1 [Trametinib] (partner 0.02 µM)
Method in brief: (§1)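 Dosing by pin tool came one day after lung cancer cell lines were seeded in 1536-well plates, using either one drug or a fixed anchor-drug dose plus five library-drug doses (not always all listed) in √10 steps. After 5 days, nuclei were counted on 4× images. Relative viability is treated-well nuclei count divided by vehicle-well nuclei count, and values are medians of duplicate plates.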

[2] = compound: CC1=C(C(=O)N2C=CSC2=N1)CCN3CCC(=C(C4=CC=CC=C4)C5=CC=C(C=C5)F)CC3 + CC1(C)CCC(c2ccc(Cl)cc2)=C(CN2CCN(c3ccc(C(=O)NS(=O)(=O)c4ccc(N[C@H](CCN5CCOCC5)CSc5ccccc5)c(S(=O)(=O)C(F)(F)F)c4)cc3)CC2)C1 [Navitoclax] (partner 0.5 µM)
Method in brief: as §1

[3] = compound: CC1=C(C(=O)N2C=CSC2=N1)CCN3CCC(=C(C4=CC=CC=C4)C5=CC=C(C=C5)F)CC3 + N=C(N)NC(=N)NCCc1ccccc1 [Phenformin] (partner 250 µM)
Method in brief: as §1

[4] = compound: CC1=C(C(=O)N2C=CSC2=N1)CCN3CCC(=C(C4=CC=CC=C4)C5=CC=C(C=C5)F)CC3 + Nc1nc2[nH]cc(CCc3ccc(C(=O)N[C@@H](CCC(=O)O)C(=O)O)cc3)c2c(=O)[nH]1 [Pemetrexed] (partner 0.2 µM)
Method in brief: as §1

Cell Line	relative viability ([1]; first compound 0.08 µM)	relative viability ([1]; first compound 0.253 µM)	relative viability ([1]; first compound 0.8 µM)	relative viability ([1]; first compound 2.53 µM)	relative viability ([1]; first compound 8 µM)	relative viability ([2]; first compound 0.08 µM)	relative viability ([2]; first compound 0.253 µM)	relative viability ([2]; first compound 0.8 µM)	relative viability ([2]; first compound 2.53 µM)	relative viability ([2]; first compound 8 µM)	relative viability ([3]; first compound 0.08 µM)	relative viability ([3]; first compound 0.253 µM)	relative viability ([3]; first compound 0.8 µM)	relative viability ([3]; first compound 2.53 µM)	relative viability ([3]; first compound 8 µM)	relative viability ([4]; first compound 0.08 µM)	relative viability ([4]; first compound 0.253 µM)	relative viability ([4]; first compound 0.8 µM)	relative viability ([4]; first compound 2.53 µM)	relative viability ([4]; first compound 8 µM)
NCI-H460	0.129	0.132	0.129	0.124	0.129	0.787	0.957	1.55	1.56	0.0629	0.474	0.562	0.611	0.548	0.113	0.0657	0.059	0.0626	0.0637	0.0907
NCI-H3122	0.214	0.247	0.229	0.235	0.229	1.11	1.04	1.03	1.04	0.965	0.38	0.376	0.386	0.396	0.394	0.192	0.188	0.201	0.214	0.163
NCI-H1563											0.654	0.7	0.695	0.633	0.648	0.971	0.766	0.744	0.833	0.653
NCI-H1666	0.76	0.891	0.9	0.985	0.717	0.991	0.854	1.04	1.16	0.836	0.531	0.609	0.581	0.591	0.527	0.838	0.853	0.884	0.89	0.754
PC-3 [JPC-3]	0.645		0.834	0.822	0.664	0.789	0.657	0.845	0.921	0.803	0.49	0.451	0.454	0.525	0.495	1.16		0.995	1.01	1.02
UMC-11	0.461		0.701	0.778	0.556	0.288	0.253	0.294	0.309	0.276	0.366	0.326	0.321	0.338	0.255	0.914		0.8	0.945	0.632
SW 1573	0.562	0.678	0.646	0.652	0.354	0.777	1.02	1.11	1.15	0.409		0.343	0.4	0.377	0.24	0.998	0.854	0.786	0.933	0.578
SK-LU-1	0.526	0.424	0.479	0.645	0.402	0.586	0.899	0.941	0.913	0.371	0.672	0.475	0.585	0.576	0.42	1.12	0.942	0.995	1.13	0.597
201T	0.7	0.749	0.709	0.75	0.722	1.19	1.16	1.21	1.22	1.23	0.504	0.463	0.433	0.477	0.386	0.304	0.335	0.335	0.342	0.24
EPLC-272H	0.379	0.295	0.305	0.281	0.255		1.18	1.27	1.14	0.827	0.333	0.328	0.286	0.286	0.391	0.335		0.333	0.288	0.416
NCI-H441	0.423	0.404	0.445	0.541	0.372		0.694	0.686	0.638	0.371	0.797	0.759	0.918	0.737	0.667	0.289	0.255	0.252	0.296	0.254
NCI-H1651	0.783	0.915	0.837	0.866	0.712	0.984	0.654	1.01	1.29	0.404	0.341	0.321	0.352	0.304	0.283	0.756	0.611	0.545	0.644	0.574
Calu-6						0.873	0.944	0.935	0.969	0.441										
NCI-H1299						1.14	1.03	1.03	1.06	0.654										
NCI-H650	0.997	0.891	0.986	1.07	0.932						0.404	0.521	0.421	0.497	0.404	1.02	0.957	0.923	1.05	0.871
NCI-H727	0.342	0.365	0.366	0.397	0.39	0.346	0.481	0.444	0.48	0.383	0.593	0.55	0.481	0.464	0.47					
ABC-1											0.267	0.223	0.212	0.248	0.197					
NCI-H358	0.12	0.121	0.127	0.133	0.136						0.344	0.361	0.361	0.379	0.243	0.204	0.196	0.16	0.179	0.162
NCI-H661	0.49	0.486	0.525	0.518	0.462						0.242	0.268	0.277	0.297	0.291	0.961	0.98	0.924	0.995	0.493
LCLC-103H	0.672	0.645	0.68	0.743	0.549						0.327	0.331	0.316	0.308	0.289	0.542	0.464	0.437	0.437	0.49
